PMC10281575, “PfCRT mutations conferring piperaquine resistance in falciparum malaria shape the kinetics of quinoline drug binding and transport” (PLOS Pathogens, 2023)
Substitutions are numbered along the chain they refer to. “And” between values parts separate entries of the source, which are not always exact repeats. Identical values can stand only once.

Legend:
Dd2^Dd2crt parasites = system: Dd2^Dd2crt parasites; design: method as in Okombo et al. (2022); details: ref Okombo et al. (2022); cited from earlier work
PfCRT^Dd2_I260A = target: T1, PfCRT^Dd2_I260A (Plasmodium falciparum, UniProt Q8IBZ9, A220S/I260A/I356T/K76T/M74I/N326S/N75E/Q271E/R371I); assay: PfCRT-mediated CQ transport in oocytes expressing PfCRT^Dd2_I260A; format: cell-based; details: S6 Fig; per biological replicate
T1 construct: expressed in transfected cells; host or cells: Xenopus laevis oocytes
T1 sequence (Q8IBZ9 1-424 M74I/N75E/K76T/A220S/I260A/Q271E/N326S/I356T/R371I): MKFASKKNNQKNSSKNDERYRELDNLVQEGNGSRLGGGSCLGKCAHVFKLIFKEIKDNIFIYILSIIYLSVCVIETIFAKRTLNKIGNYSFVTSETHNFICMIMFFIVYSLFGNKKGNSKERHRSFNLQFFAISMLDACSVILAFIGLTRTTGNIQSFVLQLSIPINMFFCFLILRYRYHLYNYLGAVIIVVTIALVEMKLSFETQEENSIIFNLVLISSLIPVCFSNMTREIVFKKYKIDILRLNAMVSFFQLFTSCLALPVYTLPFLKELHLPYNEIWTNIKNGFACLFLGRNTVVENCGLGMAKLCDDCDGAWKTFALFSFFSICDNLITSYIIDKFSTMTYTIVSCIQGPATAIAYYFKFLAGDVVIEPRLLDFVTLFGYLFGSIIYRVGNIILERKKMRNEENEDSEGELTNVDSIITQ
Excerpt: (§1) The docking results reflect the differences in the experimentally measured affinities of the two compounds for PfCRT^Dd2, with CQ having less favorable docking scores compared to PPQ (S1 Table). […] In this pose, CQ forms polar contacts via the two positively charged nitrogens: the nitrogen of the diethylamino tail makes a salt bridge with E75 on TM1 and the nitrogen of the 4-amminoquinoline ring makes a hydrogen bond with S257 on TM7. Hydrophobic contacts are established by the quinoline ring with I260, V141, and F145.
(§2) Drug transport assays were performed as previously described. Briefly, measurements of radiolabeled drug uptake were made over 1 h, unless otherwise specified. […] Where specified, one or more unlabeled drugs were also present at the indicated concentrations. […] The radioactivity in the sample was measured using a liquid scintillation analyser Tri-Carb 4910 TR (PerkinElmer). Water-injected oocytes were analyzed in parallel as a negative control. The buffer from each condition was measured in duplicate in parallel to each experiment to transform counts per minute into pmol of drug. Drug uptake attributable to PfCRT was determined by subtracting the background uptake from water-injected oocytes from that of PfCRT-expressing oocytes. […]

PfCRT^Dd2_V141A = target: T2, PfCRT^Dd2_V141A (Plasmodium falciparum, UniProt Q8IBZ9, A220S/I356T/K76T/M74I/N326S/N75E/Q271E/R371I/V141A); assay: PfCRT-mediated CQ transport in oocytes expressing PfCRT^Dd2_V141A; format: cell-based; details: S6 Fig; per biological replicate
T2 construct: expressed in transfected cells; host or cells: Xenopus laevis oocytes
T2 sequence (Q8IBZ9 1-424 M74I/N75E/K76T/V141A/A220S/Q271E/N326S/I356T/R371I): T1 sequence (Q8IBZ9 1-424 M74I/N75E/K76T/A220S/I260A/Q271E/N326S/I356T/R371I) with V141A, A260I
Excerpt: as §1, §2

PfCRT^Dd2_S257A = target: T3, PfCRT^Dd2_S257A (Plasmodium falciparum, UniProt Q8IBZ9, A220S/I356T/K76T/M74I/N326S/N75E/Q271E/R371I/S257A); assay: PfCRT-mediated CQ transport in oocytes expressing PfCRT^Dd2_S257A; format: cell-based; details: S6 Fig; per biological replicate
T3 construct: expressed in transfected cells; host or cells: Xenopus laevis oocytes
T3 sequence (Q8IBZ9 1-424 M74I/N75E/K76T/A220S/S257A/Q271E/N326S/I356T/R371I): T1 sequence (Q8IBZ9 1-424 M74I/N75E/K76T/A220S/I260A/Q271E/N326S/I356T/R371I) with S257A, A260I
Excerpt: as §1, §2

Clc1ccc2c(N3CCN(CCCN4CCN(c5ccnc6cc(Cl)ccc56)CC4)CC3)ccnc2c1 [PPQ, piperaquine]
drug accumulation ratio (Dd2^Dd2crt parasites): 1900 fold

CCN(CC)CCCC(C)Nc1ccnc2cc(Cl)ccc12 (stereo not shown) [CQ, chloroquine]
PfCRTDd2_I260A-mediated CQ transport (PfCRT^Dd2_I260A): 2.260 pmol oocyte-1 h-1 and 2.400 pmol oocyte-1 h-1 and 3.540 pmol oocyte-1 h-1
PfCRTDd2_V141A-mediated CQ transport (PfCRT^Dd2_V141A): 1.080 pmol oocyte-1 h-1 and 0.460 pmol oocyte-1 h-1 and 1.360 pmol oocyte-1 h-1
PfCRTDd2_S257A-mediated CQ transport (PfCRT^Dd2_S257A): 1.610 pmol oocyte-1 h-1 and 1.360 pmol oocyte-1 h-1 and 1.980 pmol oocyte-1 h-1
